From the supplement of paper PMC11208160

Assay: recombinant barcode read abundance after kanamycin selection (control-corrected) (log10(CPM+1)); higher = more efficient recombination; sequences stand for … in AGTGCAGAGAAAATCGGCCAGTTTTCTCTGCCTGCAGTCCGCATGCCGT…AGATTTATGCAGCGGACTGCCTTTCTCCCAAAGTGATAAACCGGACAGTATCATGGACCGGTTTTCCCGGTAATCCGTATTTGCAAGGTTGGTTTCACT; site = the 11-nt target
How it was run: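 In a pooled screen in E. coli, targets were paired with target-binding loops of the IS621 bridge RNA. Each oligo carried a promoter, a target, a barcode and the first 104 bridge RNA bases driven by J23119, and was Gibson-cloned into a vector holding the remaining 73 bp and a T7-inducible recombinase before co-electroporation with a donor plasmid. Duplicate platings went onto chloramphenicol/ampicillin LB agar as the control or onto chloramphenicol/ampicillin/kanamycin with 0.1 mM IPTG. Recombination efficiency is the averaged, control-corrected count per million of barcodes at recombinant junctions, given as log10(CPM+1).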
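Note: IS621 recombinase and bridge RNA in Escherichia coli cells.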

Sequence | recombinant barcode read abundance (log10)
CATGTGTCTTGGGTTCTAACCTGTTGCGG (site CATGCGCCTCC) | 0.0713
ACAGTACCTTGGGTTCTAACCTGTTGCTG (site ACAGTACCTCA) | 1.87
TGTACGTCTTGGGTTCTAACCTGTTGCTT (site TGTACGTCTAA) | 0.326
CGGCGTCCTTGGGTTCTAACCTGTTGCCT (site CGGCGTCCTCG) | 0.0739
GAGTTCCCTTGGGTTCTAACCTGTTGCGT (site GAGTTACCTAC) | 0.341
TAGGGGACTTGGGTTCTAACCTGTTGCAA (site TAGGGGACTTT) | 2.27
CACGGGCCTTGGGTTCTAACCTGTTGCCT (site GACAGGCCTAG) | 0.0551
TCGCCTACTTGGGTTCTAACCTGTTGCCT (site TCGCCTGCTAG) | 0.396
GATCTGCCTTGGGTTCTAACCTGTTGCCT (site GATCTGCCTAG) | 0.984
AATAGAGCTTGGGTTCTAACCTGTTGCAG (site AAGTGAGCTCT) | 0.0557
TTCAAAACTTGGGTTCTAACCTGTTGCCT (site TTCAAAACTAG) | 0.103
TATGGAGCTTGGGTTCTAACCTGTTGCAG (site TATGGAGCTCT) | 2.34
CCAAAGGCTTGGGTTCTAACCTGTTGCCT (site CCAAAGGCTAG) | 0.656
ACAGTTACTTGGGTTCTAACCTGTTGCAT (site TTGTGAGCTTG) | 0.737
GGGGCTACTTGGGTTCTAACCTGTTGCCT (site GGGGCTACTGT) | 0.183
TCGGTGACTTGGGTTCTAACCTGTTGCCT (site ACGGTGACTAG) | 0.658
ATTTCTACTTGGGTTCTAACCTGTTGCGA (site GTTTCTACTTA) | 0.102
CCGTAGCCTTGGGTTCTAACCTGTTGCCT (site CCGGAGCCTAG) | 0.162
ATTGGCTCTTGGGTTCTAACCTGTTGCCT (site ATTGGCTCTAG) | 0.684
AATGCTCCTTGGGTTCTAACCTGTTGCGT (site AATGCTCCTAG) | 0.419
TCACGTCCTTGGGTTCTAACCTGTTGCTT (site TCACGTCCTAC) | 0.0167
CTATCGTCTTGGGTTCTAACCTGTTGCCT (site ATATCGTCTAG) | 0.0956

Sequence | recombinant barcode read abundance (log10)
TGACTAGCTTGGGTTCTAACCTGTTGCCT (site TGTCTAGCTAG) | 0.0443
CCACGAACTTGGGTTCTAACCTGTTGCTT (site CCAAGTACTAA) | 0
TGTCGCACTTGGGTTCTAACCTGTTGCAG (site TGTCGCACTCT) | 0.313
TGGCCTTCTTGGGTTCTAACCTGTTGCCT (site TTGCCTTCTAG) | 0.0528
TGTCAATCTTGGGTTCTAACCTGTTGCGT (site TGTCGATCTAG) | 0.152
TAGGAGACTTGGGTTCTAACCTGTTGCGT (site TAGGAGACTAC) | 2.56
CTATGGACTTGGGTTCTAACCTGTTGCCT (site CTATCGACTAG) | 0.196
GTCAACTCTTGGGTTCTAACCTGTTGCCT (site GTAAACTCTAG) | 0.0267
AGGTCACCTTGGGTTCTAACCTGTTGCGT (site AGGTCACCTAT) | 1.08
AATTGAGCTTGGGTTCTAACCTGTTGCCT (site AATTAAGCTAG) | 0.0773
GCAAGCTCTTGGGTTCTAACCTGTTGCTA (site GCAAGGTCTTA) | 0.36
GTAGAGTCTTGGGTTCTAACCTGTTGCCT (site GCAGAGTCTAG) | 1.94
AATTAGTCTTGGGTTCTAACCTGTTGCGG (site AGTTAGTCTCC) | 0.312
GGGTCCACTTGGGTTCTAACCTGTTGCAT (site GGGTCCACTAC) | 0.13
GATTATGCTTGGGTTCTAACCTGTTGCCT (site GAGTATGCTAG) | 0.259
ACAAACCCTTGGGTTCTAACCTGTTGCTA (site ACAAACCCTTA) | 0.672
GCACACTCTTGGGTTCTAACCTGTTGCCT (site GCACCCTCTAG) | 0.128
GACTTAACTTGGGTTCTAACCTGTTGCTT (site GACTTAACTAA) | 0.48
GGGGCACCTTGGGTTCTAACCTGTTGCTT (site GGGGCACCTAG) | 1.48
ATGCCATCTTGGGTTCTAACCTGTTGCCT (site ATCCCATCTAG) | 0.885
CGGTAGTCTTGGGTTCTAACCTGTTGCTT (site CGGTAGTCTAA) | 1.41
TAGGAAGCTTGGGTTCTAACCTGTTGCGA (site TAGGAAGCTTC) | 2.34

Sequence | recombinant barcode read abundance (log10)
TTGGATCCTTGGGTTCTAACCTGTTGCTT (site TTGGATCCTAA) | 1.87
AAGAAAGCTTGGGTTCTAACCTGTTGCCT (site AAGAAAGCTAG) | 1.82
ACGAGCGCTTGGGTTCTAACCTGTTGCCT (site ACGATCGCTAG) | 0.0598
TCGAGTACTTGGGTTCTAACCTGTTGCCT (site TCGAGTACTAG) | 0.274
TCTCACGCTTGGGTTCTAACCTGTTGCCT (site TCTCACGCTAG) | 0.964
TGACCTTCTTGGGTTCTAACCTGTTGCCT (site TGACCTTCTAG) | 0.526
TAACATACTTGGGTTCTAACCTGTTGCAT (site TAACATACTAT) | 1.22
TAAGACGCTTGGGTTCTAACCTGTTGCCT (site TACGACGCTAG) | 0.0565
ACGCAATCTTGGGTTCTAACCTGTTGCCT (site ACGCAATCTAG) | 0.0303
AAGCAGTCTTGGGTTCTAACCTGTTGCCT (site AAGCACTCTAG) | 0.206
AGCTTAGCTTGGGTTCTAACCTGTTGCCT (site AGCTTAGCTAG) | 0.555
TTCAAAGCTTGGGTTCTAACCTGTTGCCT (site TTCAAAACTAG) | 0.0225
CTAACCTCTTGGGTTCTAACCTGTTGCTG (site CTAACCTCTCA) | 1.49
GCCCATGCTTGGGTTCTAACCTGTTGCGG (site CATTTCACTAG) | 0.144
CTACTAACTTGGGTTCTAACCTGTTGCAT (site CTACTAACTAT) | 1.34
GTGAGGTCTTGGGTTCTAACCTGTTGCTT (site GTGAGGTCTAA) | 2.01
GAAACGGCTTGGGTTCTAACCTGTTGCCT (site GAAACGGCTAG) | 0.091
CGAATGTCTTGGGTTCTAACCTGTTGCTG (site GGTATGTCTCA) | 0.202
GCGTCCACTTGGGTTCTAACCTGTTGCCT (site GCGTCCACTAG) | 0.0111
CACGAGCCTTGGGTTCTAACCTGTTGCCT (site CACGAGGCTAG) | 0.0367
GTTTAAACTTGGGTTCTAACCTGTTGCCT (site GTTTACGCTAG) | 0.0493
GTGTTGCCTTGGGTTCTAACCTGTTGCCT (site GTGTTGCCTAG) | 0.73
